SMILES strings stand for the structures. “And” between values parts separate entries of the source, which are not always exact repeats. Equal values may be shown once.

In the first experiment the target is T1, GABAA2 receptors (α2, β3, γ2 receptor subunits transfected into Sf9 cells) (Homo sapiens, UniProt P18507+P47869).
T1 construct: host or cells: Sf9 cells (membranes)
T1 sequence (P47869 29-451): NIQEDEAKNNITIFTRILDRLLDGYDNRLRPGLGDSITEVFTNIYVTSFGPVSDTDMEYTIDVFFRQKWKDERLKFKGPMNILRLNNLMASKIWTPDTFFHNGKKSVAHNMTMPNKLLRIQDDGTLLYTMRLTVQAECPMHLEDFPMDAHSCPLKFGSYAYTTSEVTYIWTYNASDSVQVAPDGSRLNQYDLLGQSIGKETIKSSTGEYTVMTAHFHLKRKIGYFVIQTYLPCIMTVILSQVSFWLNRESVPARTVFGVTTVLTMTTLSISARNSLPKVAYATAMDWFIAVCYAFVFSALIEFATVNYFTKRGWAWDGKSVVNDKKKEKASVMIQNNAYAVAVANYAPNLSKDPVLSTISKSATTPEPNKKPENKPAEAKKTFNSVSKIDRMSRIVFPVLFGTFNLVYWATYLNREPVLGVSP
T1 sequence (P28472 26-473 partner): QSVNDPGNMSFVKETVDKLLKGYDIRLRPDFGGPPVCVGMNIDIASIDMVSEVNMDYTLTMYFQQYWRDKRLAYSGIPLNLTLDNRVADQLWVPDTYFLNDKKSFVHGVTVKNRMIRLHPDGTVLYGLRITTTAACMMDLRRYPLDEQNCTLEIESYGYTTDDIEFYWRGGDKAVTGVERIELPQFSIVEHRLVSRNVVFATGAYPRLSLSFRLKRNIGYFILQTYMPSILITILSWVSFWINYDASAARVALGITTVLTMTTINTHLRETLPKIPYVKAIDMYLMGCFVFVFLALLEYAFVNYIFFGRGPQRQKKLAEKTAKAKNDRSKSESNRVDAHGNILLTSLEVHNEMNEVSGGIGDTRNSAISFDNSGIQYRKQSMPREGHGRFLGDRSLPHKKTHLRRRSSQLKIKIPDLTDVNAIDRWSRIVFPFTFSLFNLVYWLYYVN
T1 sequence (P18507 40-475): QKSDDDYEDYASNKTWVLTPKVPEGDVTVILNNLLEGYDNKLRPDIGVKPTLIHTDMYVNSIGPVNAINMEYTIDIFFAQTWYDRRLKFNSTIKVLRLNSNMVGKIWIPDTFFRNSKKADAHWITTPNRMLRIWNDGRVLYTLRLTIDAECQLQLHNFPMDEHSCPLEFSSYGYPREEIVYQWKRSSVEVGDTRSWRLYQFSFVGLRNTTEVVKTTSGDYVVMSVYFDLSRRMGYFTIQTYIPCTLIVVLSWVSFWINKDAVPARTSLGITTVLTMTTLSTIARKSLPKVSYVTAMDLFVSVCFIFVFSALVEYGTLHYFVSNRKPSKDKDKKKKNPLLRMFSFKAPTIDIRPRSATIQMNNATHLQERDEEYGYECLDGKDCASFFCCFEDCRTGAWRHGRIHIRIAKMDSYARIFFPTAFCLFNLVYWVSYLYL
Briefly: GABAA2 Binding Method ([3H]-Flunitrazepam displacement). Conditions: [3H]-Flunitrazepam ~2 nM, α2β3γ2 Sf9 membranes, 1 hr at 4° C. As for the experimental part:
In some embodiments, the binding test is directed to a subtype of GABAA receptors, such as GABAA1 receptors (i.e., those containing the α1 subunit), GABAA2 receptors (i.e., those containing the α2 subunit), GABAA3 receptors (i.e., those containing the α3 subunit) and GABAA5 receptors (i.e., those containing the α5 subunit).
[^3H]-Flunitrazepam (Cat #NET567): Prepare 10× stock=20 nM, [F} in assay=˜2 nM
1. […] Add 5 ul of 30 uM flumazenil to wells 12 D-E for 50% control wells.
5. Add 25 μl [^3H]-Flunitrazepam (Automation Program 6). Incubate for 1 hr at 4° C.
6. Collect membranes on a cell harvester onto GF/B filter plates (pre-wet with dH2O and wash 5×400 μl/well, with cold assay buffer. (First 3 washes are considered hot; last two are cold.)
Data is analyzed by calculating percent of control, IC50, and Ki in an XLfit template. The following formula is used in the templates: […]
For `COc1ccc(CN2Cc3nc4c(-c5ccc(OC)c(OC)c5)cccc4c(N)c3C2=O)cc1`, affinity was put at a Ki of 0.0477 µM.

Take `CCCN1Cc2nc3c(-c4cccc(C#N)c4)cccc3c(N)c2C1=O` [3-(9-amino-1-oxo-2-propyl-2,3-dihydro-1H-pyrrolo[3,4-b]quinolin-5-yl)benzonitrile]: the affinity, expressed as Ki, was 0.0212 µM.

The compound `CCCN1Cc2nc3c(-c4cncc(C#N)c4)cccc3c(N)c2C1=O` [5-(9-amino-1-oxo-2-propyl-2,3-dihydro-1H-pyrrolo[3,4-b]quinolin-5-yl)nicotinonitrile] registered an inhibition constant Ki of 0.0649 µM.

`CCN1Cc2nc3c(-c4c(OC)cccc4OC)cccc3c(N)c2C1=O` [9-amino-5-(2,6-dimethoxyphenyl)-2-ethyl-2,3-dihydro-1H-pyrrolo[3,4-b]quinolin-1-one] had a Ki of 0.0825 µM.

For the compound `COc1ccc(-c2cccc3c(N)c4c(nc23)CN(C)C4=O)c(F)c1` [9-amino-5-(2-fluoro-4-methoxyphenyl)-2-methyl-2,3-dihydro-1H-pyrrolo[3,4-b]quinolin-1-one], the Ki was 0.0778 µM.

`COc1ccc(F)c(-c2cccc3c(N)c4c(nc23)CN(C)C4=O)c1` [9-amino-5-(2-fluoro-5-methoxyphenyl)-2-methyl-2,3-dihydro-1H-pyrrolo[3,4-b]quinolin-1-one] gave a Ki of 0.0558 µM.

`CCCN1Cc2nc3c(-c4cc(-c5ccncc5)ccc4OC)cccc3c(N)c2C1=O` [9-amino-5-(2-methoxy-5-(pyridin-4-yl)phenyl)-2-propyl-2,3-dihydro-1H-pyrrolo[3,4-b]quinolin-1-one] displayed a Ki of 0.0511 µM.

As for `COc1ccc(CN2Cc3nc4c(-c5cc(C)ccc5OC)cccc4c(N)c3C2=O)cc1` [9-amino-5-(2-methoxy-5-methylphenyl)-2-(4-methoxybenzyl)-2,3-dihydro-1H-pyrrolo[3,4-b]quinolin-1-one], the inhibition constant Ki turned out to be 0.0551 µM.

`COc1ccc(C)cc1-c1cccc2c(N)c3c(nc12)CN(C)C3=O` [9-amino-5-(2-methoxy-5-methylphenyl)-2-methyl-2,3-dihydro-1H-pyrrolo[3,4-b]quinolin-1-one] yielded a Ki of 0.0702 µM.

`CCCN1Cc2nc3c(-c4cnc(OC)nc4)cccc3c(N)c2C1=O` [9-amino-5-(2-methoxypyrimidin-5-yl)-2-propyl-2,3-dihydro-1H-pyrrolo[3,4-b]quinolin-1-one] had an inhibition constant (Ki) of 0.0758 µM.

`COc1ccc(-c2cccc3c(N)c4c(nc23)CN(C)C4=O)cc1OC` [9-amino-5-(3,4-dimethoxyphenyl)-2-methyl-2,3-dihydro-1H-pyrrolo[3,4-b]quinolin-1-one]: the affinity corresponds to a Ki of 0.088 µM.

The compound `CCN1Cc2nc3c(-c4cc(OC)cc(OC)c4)cccc3c(N)c2C1=O` [9-amino-5-(3,5-dimethoxyphenyl)-2-ethyl-2,3-dihydro-1H-pyrrolo[3,4-b]quinolin-1-one] returned a Ki of 0.0272 µM.

Compound `COc1cc(OC)cc(-c2cccc3c(N)c4c(nc23)CN(C)C4=O)c1` [9-amino-5-(3,5-dimethoxyphenyl)-2-methyl-2,3-dihydro-1H-pyrrolo[3,4-b]quinolin-1-one] displayed a Ki of 0.0741 µM.

Take `Cc1cc(C)cc(-c2cccc3c(N)c4c(nc23)CN(C)C4=O)c1` [9-amino-5-(3,5-dimethylphenyl)-2-methyl-2,3-dihydro-1H-pyrrolo[3,4-b]quinolin-1-one]: the affinity corresponds to a Ki of 0.0655 µM.

`CCCN1Cc2nc3c(-c4cccc(Cl)c4)cccc3c(N)c2C1=O` [9-amino-5-(3-chlorophenyl)-2-propyl-2,3-dihydro-1H-pyrrolo[3,4-b]quinolin-1-one] came in with a Ki of 0.0765 µM.

Compound `CCCN1Cc2nc3c(-c4cccc(F)c4OC)cccc3c(N)c2C1=O` [9-amino-5-(3-fluoro-2-methoxyphenyl)-2-propyl-2,3-dihydro-1H-pyrrolo[3,4-b]quinolin-1-one] showed an inhibition constant (Ki) of 0.057 µM.

As to `COc1cc(F)cc(-c2cccc3c(N)c4c(nc23)CN(C)C4=O)c1` [9-amino-5-(3-fluoro-5-methoxyphenyl)-2-methyl-2,3-dihydro-1H-pyrrolo[3,4-b]quinolin-1-one], affinity was put at a Ki of 0.0804 µM.

On to `CCCN1Cc2nc3c(-c4ccc(F)cc4)cccc3c(N)c2C1=O` [9-amino-5-(4-fluorophenyl)-2-propyl-2,3-dihydro-1H-pyrrolo[3,4-b]quinolin-1-one], for which the Ki came out at 0.0783 µM.

Compound `CCCN1Cc2nc3c(-c4cnc(OC)c(F)c4)cccc3c(N)c2C1=O` [9-amino-5-(5-fluoro-6-methoxypyridin-3-yl)-2-propyl-2,3-dihydro-1H-pyrrolo[3,4-b]quinolin-1-one] displayed a Ki of 0.0811 µM.

On to `CCCN1Cc2nc3c(-c4cnc(Cl)c(C)c4)cccc3c(N)c2C1=O` [9-amino-5-(6-chloro-5-methylpyridin-3-yl)-2-propyl-2,3-dihydro-1H-pyrrolo[3,4-b]quinolin-1-one], for which the Ki was 0.0857 µM.

In the case of `COc1cccc(F)c1-c1cccc2c(N)c3c(nc12)CN(C1CC1)C3=O` [Example 16, 9-Amino-2-cyclopropyl-5-(2-fluoro-6-methoxyphenyl)-2,3-dihydropyrrolo[3,4-b]quinolin-1-one], the inhibition constant Ki was 0.00363 µM and 0.00636 µM.

The compound `COc1ccc(-c2c(F)ccc3c(N)c4c(nc23)CN(C2CC2)C4=O)c(OC)c1` [Example 28, 9-Amino-2-cyclopropyl-5-(2,4-dimethoxyphenyl)-6-fluoro-2,3-dihydropyrrolo[3,4-b]quinolin-1-one] had a Ki of 0.00833 µM.

The compound `CCN1Cc2nc3c(-c4cnc(OC)nc4OC)c(F)ccc3c(N)c2C1=O` [Example 34, 9-Amino-5-(2,4-dimethoxypyrimidin-5-yl)-2-ethyl-6-fluoro-2,3-dihydropyrrolo[3,4-b]quinolin-1-one] yielded a Ki of 0.0167 µM.

Consider `CCN1Cc2nc3c(-c4cnccc4OC)c(F)ccc3c(N)c2C1=O` [Example 36, 9-Amino-2-ethyl-6-fluoro-5-(4-methoxypyridin-3-yl)-2,3-dihydropyrrolo[3,4-b]quinolin-1-one], for which the affinity, expressed as Ki, was 0.00243 µM.

In turn, `COc1ccc(-c2c(F)ccc3c(N)c4c(nc23)CN(C2CCC2)C4=O)c(OC)n1` [Example 52, 9-Amino-2-cyclobutyl-5-(2,6-dimethoxypyridin-3-yl)-6-fluoro-2,3-dihydropyrrolo[3,4-b]quinolin-1-one] displayed a Ki of 0.000774 µM.

In turn, `COc1ccc(-c2c(F)ccc3c(N)c4c(nc23)CN(C2CC2)C4=O)c(OC)n1` [Example 54, 9-Amino-2-cyclopropyl-5-(2,6-dimethoxypyridin-3-yl)-6-fluoro-2,3-dihydropyrrolo[3,4-b]quinolin-1-one] showed a Ki of 0.0145 µM.

Compound `CCCN1Cc2nc3c(-c4c(F)cccc4OC)c(F)ccc3c(N)c2C1=O` [Example 55, 9-Amino-6-fluoro-5-(2-fluoro-6-methoxyphenyl)-2-propyl-2,3-dihydropyrrolo[3,4-b]quinolin-1-one] showed a Ki of 0.00349 µM.

The target of the next experiment is T2, GABAA receptor α1β2γ2 (Homo sapiens, UniProt P14867+P18507).
T2 construct: expressed in transfected cells; host or cells: Xenopus laevis oocytes injected with cRNA
T2 sequence (P14867 28-456): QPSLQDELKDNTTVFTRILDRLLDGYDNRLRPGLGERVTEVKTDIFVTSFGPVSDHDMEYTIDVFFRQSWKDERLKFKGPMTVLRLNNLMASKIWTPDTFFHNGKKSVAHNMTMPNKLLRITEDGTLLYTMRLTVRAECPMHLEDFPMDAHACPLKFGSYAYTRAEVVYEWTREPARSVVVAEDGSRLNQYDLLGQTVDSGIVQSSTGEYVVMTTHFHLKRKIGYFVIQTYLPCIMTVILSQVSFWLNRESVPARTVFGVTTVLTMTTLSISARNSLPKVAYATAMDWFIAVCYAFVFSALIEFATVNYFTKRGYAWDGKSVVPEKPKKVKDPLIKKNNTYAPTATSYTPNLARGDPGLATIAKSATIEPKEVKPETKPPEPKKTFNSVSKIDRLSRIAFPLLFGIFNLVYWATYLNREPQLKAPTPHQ
T2 sequence (P47870 25-512 partner limits assumed): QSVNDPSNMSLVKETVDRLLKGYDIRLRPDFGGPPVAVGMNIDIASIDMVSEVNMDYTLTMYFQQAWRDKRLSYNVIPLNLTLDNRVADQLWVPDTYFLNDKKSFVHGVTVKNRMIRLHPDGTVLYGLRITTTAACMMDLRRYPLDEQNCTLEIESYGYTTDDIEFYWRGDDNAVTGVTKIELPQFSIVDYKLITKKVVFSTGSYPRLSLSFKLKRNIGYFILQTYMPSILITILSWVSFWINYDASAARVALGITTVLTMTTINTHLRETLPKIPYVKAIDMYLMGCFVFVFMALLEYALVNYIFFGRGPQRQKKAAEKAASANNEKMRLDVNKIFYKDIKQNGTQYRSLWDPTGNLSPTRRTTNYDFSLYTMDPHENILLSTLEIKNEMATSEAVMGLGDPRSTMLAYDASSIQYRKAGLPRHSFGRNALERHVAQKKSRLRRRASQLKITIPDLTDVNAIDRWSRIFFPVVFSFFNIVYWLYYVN
T2 sequence (P18507 40-475): as the sequence (P18507 40-475) above
Briefly: Two-electrode voltage-clamp potentiation of GABA EC10 current in Xenopus oocytes, GABAA1. The class given is cell-based. Conditions: percentage potentiation of GABA EC10 current divided by that of diazepam. As for the experimental part: GABAA receptors were heterologously expressed in Xenopus oocytes by injecting cRNA corresponding to human α1, α2, α3, α5, β2, P3 and γ2 subunits of the GABAA receptor genes. The specific subunit combinations (subtypes) were as follows: α1β2γ2, α2β3γ2, α3β3γ2, and α5β3γ2. The EC10 of GABA is approximated for each cell. Stability of GABA-mediated (EC10) current is established. Modulatory effect of test compound is determined and compared across subtypes. […] Thus, the assay can characterize modulatory effects and determine subtype selectivity of test compounds on major subtypes of GABAA receptors.
Xenopus laevis frogs (Xenopus I, Kalamazoo, Mich.) were anesthetized using 0.15% tricaine. Surgically removed ovarian lobes were teased out in OR2 solution (82 NaCl, 2.5 KCl, 5 HEPES, 1.5 NaH2PO4, 1 MgCl2, 0.1 EDTA, in mM, pH 7.4). The oocytes were defolliculated by incubation in 25 mL OR2 containing 0.2% collagenase 1A (SIGMA) two times for about 60 minutes on a platform shaker and stored in Leibovitz's L-15 medium. Oocytes were injected the following day in 0.5× Leibovitz's L-15 medium containing […] gentamycin, 10 units/ml penicillin, and […] streptomycin.
Capped cRNAs from the linearized vectors containing human α1, β2 and γ2 subunits of the GABAA receptor genes were mixed in ratio of […]. Oocytes were injected with 25-50 nL of mixed RNA with an appx molar ratio for α1, β2, and γ2 as 1:1:10. Oocyte recordings were done 2-10 days after injection. The same methods apply to subtypes derived from α2β3γ2, α3β3γ2, and α5β3γ2, except for 1:1:1 ratio was used for α, β, and γ subunits.
All measurements were done in a medium containing ND-96 (96 NaCl, 2 KCl, 1.8 CaCl2.2H2O, 1 MgCl2.6H2O, 5 HEPES, in mM, pH 7.5). Two-electrode voltage-clamp recording was carried out using OpusXpress amplifier (Axon Instruments, Foster City, Calif.), which allows simultaneous recording from 8 oocytes. Oocytes were impaled with two electrodes of 1-2 MΩ tip resistance when filled with 3M KCl. Recordings were begun when membrane potential became stable at potentials negative to −50-−60 mV. Membrane potential was held at −60 mV. […] The concentration of GABA corresponded to the EC10 value calculated for each oocyte. The modulator pulses started 30 s before the GABA pulse so as to allow preincubation with the modulator. A set of 3 pulses with just GABA without modulator was given prior to the modulator-containing pulses to define the baseline GABA response. Two oocytes per each experiment were dedicated to observe the effect of diazepam on GABA response to ensure the presence of γ2 subunit in the GABAA pentameric complex, which imparts diazepam sensitivity to the complex.
Current amplitude (i) was measured from baseline to peak using Clampfit (Axon Inst., Foster City, Calif.). Potentiation was calculated as percent change from the baseline GABA current flux 100×(imod/icontrol)−1) where imod=current mediated by modulator+GABA and icontrol=current mediated by GABA alone. […] Similarly, a value of −50% potentiation means the presence of modulator caused a 50% decrease in the control current. Various other data shown here were fitted and plotted using GraphPad Prism (GraphPad Software, Inc. San Diego, Calif.). The percentage potentiation was converted to relative potentiation by dividing it with percentage potentiation value obtained from the same assay with diazepam as a control.
For the compound `COc1ccc(CN2Cc3nc4c(-c5ccc(OC)c(OC)c5)cccc4c(N)c3C2=O)cc1`, the “Relative Potentiation for GABAA1” value is recorded as 0.61.

As for `CCCN1Cc2nc3c(-c4cccc(C#N)c4)cccc3c(N)c2C1=O` [3-(9-amino-1-oxo-2-propyl-2,3-dihydro-1H-pyrrolo[3,4-b]quinolin-5-yl)benzonitrile], the “Relative Potentiation for GABAA1” value is reported as 0.54.

For the compound `CCCN1Cc2nc3c(-c4cncc(C#N)c4)cccc3c(N)c2C1=O` [5-(9-amino-1-oxo-2-propyl-2,3-dihydro-1H-pyrrolo[3,4-b]quinolin-5-yl)nicotinonitrile], the “Relative Potentiation for GABAA1” value was 0.26.

What is called Ki is a dissociation constant, usually derived from enzyme kinetics or from competition with a known ligand. Read a low Ki as a stronger hold on the target.

These data come from US20080318943A1, “Compounds and Uses Thereof - 848” (ASTRAZENECA AB, priority 2007, published 2008).
